Assay results: patent US8067599B2 (Hoffman-La Roche Inc., priority 2006, dated 2011)
pIC50: −log10 of the molar value.

Experiments:
[1] = molecular target: T1, mouse full-length Src protein (Mus musculus, UniProt P05480); experiment: IC50 determination for inhibitors of Src kinase (IMAP fluorescence polarization); assay type: biochemical; conditions: 24 uM ATP, 37° C., 60 minutes; read-out: IC50 Src kinase inhibition
T1 construct: mouse full-length Src protein
Description: Src assay was done using mouse full-length Src protein, fluorescein labeled peptide substrate (with a sequence of KVEKIGEGTYGVVYK) and quantified by Molecular Devices' IMAP fluorescence polarization technology. Compounds were tested in serially diluted concentrations in 384 well plates. Kinase reaction was performed in KAB Buffer (10 mM HEPES, pH 7, 50 mM NaCl, 5 mM MgCl2, 1 mM DTT, 0.1 mM NaVO4, 0.02% BSA), in the presence of 24 uM ATP, incubated at 37° C. for 60 minutes. Reaction was stopped by IMAP bead mix (at 1:400 dilution). After incubation at room temperature for 2 hours, the reaction product was analyzed on LJL Acquest (excitation 485 nm and Emission 530 nm).
(§1) FP reading (in mP) was used to calculate reaction rate. The assay was semi-automated by Tomtec Quadra workstation.

[2] = molecular target: T2, fusion protein corresponding to mouse Abl (27-end) (Mus musculus, UniProt P00520); experiment: IC50 determination for inhibitors of Abl kinase (IMAP fluorescence polarization); assay type: biochemical; conditions: 22.8 uM ATP, 37° C., 60 minutes; read-out: IC50 Abl kinase inhibition
T2 construct: fusion protein corresponding to mouse Abl (27-end)
Description: Abl assay was done using fusion protein corresponding to mouse Abl (27-end), fluorescein labeled peptide substrate (with a sequence of EAIYAAPFAKKK) and quantified by Molecular Devices' IMAP fluorescence polarization technology. Compounds were tested in serially diluted concentrations in 384 well plates. Kinase reaction was performed in KAB Buffer (10 mM HEPES, pH 7, 50 mM NaCl, 5 mM MgCl2, 1 mM DTT, 0.1 mM NaVO4, 0.02% BSA), in the presence of 22.8 uM ATP, incubated at 37° C. for 60 minutes. Reaction was stopped by IMAP bead mix (at 1:400 diluted). After incubation at room temperature for 3 hours, the reaction product was analyzed on LJL Acquest (excitation 485 nm and Emission 530 nm).
FP reading (in mP) was used to calculate reaction rate. The assay was semi automated by Tomtec Quadra workstation.

[3] = molecular target: human recombinant PDGFR beta (Homo sapiens, UniProt P09619); experiment: IC50 determination for inhibitors of PDGFR kinase (IMAP fluorescence polarization); assay type: biochemical; conditions: 48 uM ATP, room temperature, 60 minutes, read-out: IC50 PDGFR kinase inhibition
Description: PDGFR assay was carried out with human recombinant PDGFR beta, fluorescein labeled peptide substrate (with a peptide sequence of ALTSNQEYLDLSMPL) and test compounds (in serial dilution) using 384-well plates. Kinase reaction was performed in MOPS buffer (20 mM MOPS pH 7.1, 5 mM Sodium Acetate, 6.25 mM MgCl2, 0.5 mM EDTA, 1 mM DTT, 0.04 mM NaVO4, 0.02% BSA), in the presence of 48 uM ATP, incubated at room temperature for 60 minutes. Reaction was stopped by IMAP Bead Binding System (Molecular Devices). After incubation at room temperature for 2 hours, the reaction product was analyzed on LJL Acquest.
as §1

HCT 116 cells = experiment: CellTiter-Glo assay in HCT 116 cells (antiproliferative activity); assay type: cell-based; conditions: Homo sapiens, HCT-116, 120 h, cell viability after 5 days
Description: The CellTiter-Glo™ Luminescent Cell Viability Assay (Promega) is a homogeneous method of determining the number of viable cells in culture based on quantitation of the ATP present, which signals the presence of metabolically active cells.
HCT 116 cells (human colon carcinoma, ATCC-No. CCl-247) were cultivated in RPMI 1640 medium with GlutaMAX™ 1 (Invitrogen, Cat-No. 61870-010), 5% Fetal Calf Serum (FCS, Sigma Cat-No. F4135 (FBS)); 100 Units/ml penicillin/100 μg/ml streptomycin (=Pen/Strep from Invitrogen Cat. No. 15140). For the assay the cells were seeded in 384 well plates, 1000 cells per well, in the same medium. The next day the test compounds were added in various concentrations ranging from 30 μM to 0.0015 μM (10 concentrations, 1:3 diluted). After 5 days the CellTiter-Glo™ assay was done according to the instructions of the manufacturer (CellTiter-Glo™ Luminescent Cell Viability Assay, from Promega). In brief: the cell-plate was equilibrated to room temperature for approximately 30 minutes and than the CellTiter-Glo™ reagent was added. The contents were carefully mixed for 15 minutes to induce cell lysis. After 45 minutes the luminescent signal was measured in Victor 2, (scanning multiwell spectrophotometer, Wallac).
• Medium: RPMI 1640 with GlutaMAX™ 1 (Invitrogen, Cat-No. 61870), 5% FCS (Sigma Cat.-No. F4135), Pen/Strep (Invitrogen, Cat No. 15140). • HCT116 (ATCC-No. CCl-247): 1000 cells in 60 μl per well of 384 well plate (Greiner 781098, μClear-plate white) • After seeding incubate plates 24 h at 37° C., 5% CO2 2nd. Day: Induction (Treatment with Compounds, 10 Concentrations):
In order to achieve a final concentration of 30 μM as highest concentration 3.5 μl of 10 mM compound stock solution were added directly to 163 μl media. Then step e) of the dilution procedure described below, was followed.

T2 sequence (P00520 27-1123 limits assumed): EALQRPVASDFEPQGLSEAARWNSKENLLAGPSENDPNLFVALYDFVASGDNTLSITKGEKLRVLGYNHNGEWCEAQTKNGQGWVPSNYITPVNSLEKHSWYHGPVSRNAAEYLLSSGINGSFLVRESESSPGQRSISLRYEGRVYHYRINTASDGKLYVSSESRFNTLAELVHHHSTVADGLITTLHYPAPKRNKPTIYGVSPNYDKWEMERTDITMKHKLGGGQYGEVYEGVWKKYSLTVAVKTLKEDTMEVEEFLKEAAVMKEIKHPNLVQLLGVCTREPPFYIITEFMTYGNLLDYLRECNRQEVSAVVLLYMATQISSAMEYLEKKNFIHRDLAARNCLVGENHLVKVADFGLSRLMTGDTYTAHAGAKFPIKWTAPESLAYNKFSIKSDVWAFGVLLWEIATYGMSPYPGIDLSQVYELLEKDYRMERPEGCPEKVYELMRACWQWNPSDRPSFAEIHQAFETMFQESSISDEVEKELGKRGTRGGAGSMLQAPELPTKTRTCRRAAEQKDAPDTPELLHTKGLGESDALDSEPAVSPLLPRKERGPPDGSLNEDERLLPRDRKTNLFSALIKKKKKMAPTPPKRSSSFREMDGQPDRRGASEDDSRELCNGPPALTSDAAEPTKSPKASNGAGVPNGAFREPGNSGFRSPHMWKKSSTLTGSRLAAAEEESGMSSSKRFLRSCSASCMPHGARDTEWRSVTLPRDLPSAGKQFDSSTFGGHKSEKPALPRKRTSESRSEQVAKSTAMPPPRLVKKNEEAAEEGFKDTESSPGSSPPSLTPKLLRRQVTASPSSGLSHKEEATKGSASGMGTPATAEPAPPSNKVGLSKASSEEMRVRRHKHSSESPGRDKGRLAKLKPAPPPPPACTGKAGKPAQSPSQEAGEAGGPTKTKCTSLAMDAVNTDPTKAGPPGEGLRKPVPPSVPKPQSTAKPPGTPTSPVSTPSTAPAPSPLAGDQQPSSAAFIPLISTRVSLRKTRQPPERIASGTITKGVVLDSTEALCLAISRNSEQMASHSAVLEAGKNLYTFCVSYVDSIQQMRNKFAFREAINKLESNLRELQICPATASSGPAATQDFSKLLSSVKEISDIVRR
T1 sequence (P05480 whole entry): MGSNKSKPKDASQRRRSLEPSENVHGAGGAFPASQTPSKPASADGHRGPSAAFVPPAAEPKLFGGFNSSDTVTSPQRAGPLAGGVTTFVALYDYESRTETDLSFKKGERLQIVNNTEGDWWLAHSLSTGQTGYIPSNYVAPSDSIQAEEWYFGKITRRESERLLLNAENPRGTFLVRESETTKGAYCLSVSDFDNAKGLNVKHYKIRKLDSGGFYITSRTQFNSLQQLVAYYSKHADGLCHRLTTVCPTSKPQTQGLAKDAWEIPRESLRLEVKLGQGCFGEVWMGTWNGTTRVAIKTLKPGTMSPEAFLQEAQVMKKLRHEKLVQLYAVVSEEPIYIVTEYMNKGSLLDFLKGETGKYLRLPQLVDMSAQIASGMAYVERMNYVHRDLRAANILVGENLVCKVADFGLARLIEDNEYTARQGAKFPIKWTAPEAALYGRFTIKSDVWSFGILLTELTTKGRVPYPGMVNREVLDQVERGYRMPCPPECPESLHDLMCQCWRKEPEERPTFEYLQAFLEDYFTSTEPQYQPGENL
Sequence of human recombinant PDGFR beta (P09619 33-1106): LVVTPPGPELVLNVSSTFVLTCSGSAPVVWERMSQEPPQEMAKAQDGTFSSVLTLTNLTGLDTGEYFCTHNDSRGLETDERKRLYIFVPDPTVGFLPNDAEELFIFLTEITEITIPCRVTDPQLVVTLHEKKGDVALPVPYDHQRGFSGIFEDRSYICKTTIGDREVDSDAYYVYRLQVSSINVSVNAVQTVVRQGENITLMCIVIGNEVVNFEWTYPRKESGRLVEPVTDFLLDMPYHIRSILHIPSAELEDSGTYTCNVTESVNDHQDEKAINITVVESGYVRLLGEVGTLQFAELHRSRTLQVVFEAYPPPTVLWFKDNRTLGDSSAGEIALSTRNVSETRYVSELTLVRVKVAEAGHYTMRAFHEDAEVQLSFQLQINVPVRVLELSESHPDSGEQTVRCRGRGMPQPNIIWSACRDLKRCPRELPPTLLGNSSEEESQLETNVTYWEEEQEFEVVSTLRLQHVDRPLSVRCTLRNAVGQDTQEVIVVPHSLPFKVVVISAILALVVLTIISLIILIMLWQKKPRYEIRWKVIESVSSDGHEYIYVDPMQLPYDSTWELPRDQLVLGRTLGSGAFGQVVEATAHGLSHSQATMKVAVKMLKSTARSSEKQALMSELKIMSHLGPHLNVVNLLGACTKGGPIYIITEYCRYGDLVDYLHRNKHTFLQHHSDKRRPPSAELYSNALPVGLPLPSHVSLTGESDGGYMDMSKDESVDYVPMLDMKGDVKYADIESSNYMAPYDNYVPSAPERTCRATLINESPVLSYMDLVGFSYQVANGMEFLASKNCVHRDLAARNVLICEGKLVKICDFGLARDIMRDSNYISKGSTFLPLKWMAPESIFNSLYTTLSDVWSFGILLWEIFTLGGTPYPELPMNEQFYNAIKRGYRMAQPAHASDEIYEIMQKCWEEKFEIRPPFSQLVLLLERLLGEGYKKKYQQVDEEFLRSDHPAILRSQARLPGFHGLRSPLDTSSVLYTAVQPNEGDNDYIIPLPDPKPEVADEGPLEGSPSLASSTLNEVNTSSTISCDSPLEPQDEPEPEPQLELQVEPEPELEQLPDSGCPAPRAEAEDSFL

| SMILES | pIC50 [1] | pIC50 [2] | pIC50 [3] | pIC50 (HCT 116 cells) |
| --- | --- | --- | --- | --- |
| O=C(Nc1ccc(Cl)c(C(=O)Nc2cnc3[nH]ccc3c2)c1)c1ccc(-c2ccccc2)cc1 [Example 2-2, Biphenyl-4-carboxylic acid [4-chloro-3-(1H-pyrrolo[2,3-b]pyridin-5-ylcarbamoyl)-phenyl]-amide] | 6.00 to 8.30 | 7.20 | 6.00 to 8.00 | 5.00 to 7.00 |
| CN(C)CCOc1cccc(-c2ccc(C(=O)Nc3ccc(Cl)c(C(=O)Nc4cnc5[nH]ccc5c4)c3)cc2)c1 [Example 1-1] | 6.00 to 8.30 | 6.00 to 8.30 | 6.00 to 8.00 | 5.74 |
